Ends that are not written are not given here.

This data set has as its system RAW264.7 cells. The data set can be described thus: MTT proliferation and cytotoxicity of peptides (stimulating index). Conditions: RAW264.7, MTT, 24 h, across 12.5, 25, 50 and 100 μg/mL peptide. Type of data set: cell-based, mouse. The procedure: The MTT colorimetry method was used to determine the effects of original rice peptides and replacement peptides on RAW264.7 cell proliferation, and the toxic effects of these peptides on the cells. RAW264.7 cells were cultured in DMEM high glucose medium containing 10% (v/v) fetal bovine serum (FBS) and 1% (v/v) of penicillin–streptomycin solution (10,000 U/mL of penicillin and 10,000 U/mL of streptomycin). The cells were cultured at 37 °C in a humidified incubator (Boxun Co., Ltd., Shanghai, China) with 5% (v/v) CO2, with sub-culturing every three days.
Briefly, pre-cultured, logarithmic phase cells were inoculated into 96-well plates (with six double wells for each group), at a cell density of 6.0 × 10^4 cells/mL. Then, 200 μL of cell suspension was added into the wells and incubated for 6 h to make the cells adhere to the well wall. After that, different concentrations of samples (12.5, 25, 50, and 100 μg/mL) were added to four of the six corresponding wells for each group. Sterile water and immunoglobulin G (IgG) were used as the blank and positive control groups, respectively. The samples were subsequently incubated in a humidified incubator with 5% (v/v) CO2 at 37 °C for 24 h, and then 20 μL of MTT solution (5 mg/mL) was added to each well and incubated for a further 4 h. Next, the culture medium supernatant was gently removed from the wells, and 150 μL of dimethyl sulfoxide (DMSO) solution was added into the wells, which were shaken for 10 min at room temperature to ensure that the […] was fully dissolved. Then, the solution was immediately detected at 490 nm. The cytotoxicity was evaluated based on the following stimulating index (SI) value Formula (3):(3) SI=OD1/OD0 where OD1 is the absorbance value at 490 nm of the sample group or the IgG group, and OD0 is the absorbance value at 490 nm of the blank group.

Take AHKFR [AR5]: the “SI value (stimulating index, OD sample/OD blank)” value is “greater than 1.0”.

Turning to LHKFR [LR5], the “SI value (stimulating index, OD sample/OD blank)” value was “greater than 1.0”.

In the case of YGLAPR [YLR6], the “SI value (stimulating index, OD sample/OD blank)” value is reported as “greater than 1.0”.

Take YGLYAR [YGR6]: the “SI value (stimulating index, OD sample/OD blank)” value is recorded as “greater than 1.0”.

For LHKAR [LAR5], the “SI value (stimulating index, OD sample/OD blank)” value is reported as “greater than 1.0”.

As for YGLYPR [YR6], the “SI value (stimulating index, OD sample/OD blank)” value is listed as “greater than 1.0”.

Consider YGAYPR [YAR6], for which the “SI value (stimulating index, OD sample/OD blank)” value is recorded as “greater than 1.0”.

Take AGLYPR [AGR6]: the “SI value (stimulating index, OD sample/OD blank)” value is given as “greater than 1.0”.

(Values after PMC10221837, “Alanine Substitution to Determine the Effect of LR5 and YR6 Rice Peptide Structure on Antioxidant and Anti-Inflammatory Activity” (Nutrients, 2023).)
